Patent US11008339B2, “Substituted pyrazole compounds containing pyrimidine and preparation method and use thereof” (Shenyang Sinochem Agrochemicals R&D Co., Ltd., priority 2015, dated 2021)
Like-named read-outs stand apart in the source and are kept apart here.

Experiments:
[1] = system: diamond back moth; assay: Bioactivity test against diamond back moth (airbrush spray, leaf disc); type: in vivo; settings: for Insecticidal activity against diamond back moth (%): 600 mg/L, contrastive test (Table 133)
Protocol: (§1) Compounds were dissolved in mixed solvent (acetone:methanol=1:1), and diluted to required concentration with water containing 0.1% of tween 80.
(§2) Diamond back moth, armyworm, peach aphid and carmine spider mite were used as targets and the method of spraying by airbrush was used for determination of insecticidal biassays.
The method of spraying by airbrush: The cabbage leaves were made into plates of 2 cm diameter by use of punch. A test solution (0.5 ml) was sprayed by airbrush at the pressure of 0.7 kg/cm^2 to both sides of every plate. 10 Second instar larvae were put into the petri-dishes after the leaf disc air-dried and 3 replicates were set for each treatment. Then the insects were maintained in observation room (25° C., 60˜70% R.H.). Scores were conducted and mortalities were calculated after 72 h.

[2] = system: Green peach aphids (Myzus Persicae Sulzer); assay: Bioactivity test against green peach aphid (airbrush foliar spray); type: in vivo; settings: 100 mg/L, contrastive test (Table 134)
Protocol: as §1, §2
Method: Filter papers were put in culture dishes (Diameter=6 cm), and water was dripped on filter papers for preserving moisture. Green peach aphids (Myzus Persicae Sulzer) were maintained on cabbage. Leaves (Diameter=3 cm) of approximately 15-30 aphids were put in the culture dishes. Bioactivity tests were used the method of Airbrush Foliar Spray, pressure=10 psi (0.7 kg/cm2), spray volume=0.5 mL. The studies were conducted at […] 25±1 C in incubator cabinets with 60±5% RH. Survey the survival aphids after 48 h and calculate the death rates.

[3] = system: cucumber gray mold; assay: Fungicidal activity in vitro (96-well, inhibition rate) against cucumber gray mold; type: cell-based; settings: 24 hours
[4] = system: cucumber downy mildew; assay: Protective activity in vivo (whole plant spray) against cucumber downy mildew; settings: for inhibition at 25 µg/mL: Cucumis sativus, read-out: protective activity (%) against cucumber downy mildew
Protocol: (§3) The method is as followed: The whole plant is used in this test. The compound is dissolved in a proper solvent to get mother solution. The proper solvent is selected from acetone, methanol, DMF and so on according to their dissolving capability to the sample. The volume rate of solvent and testing solution (v/v) is equal to or less than 5%. […] The testing solution is sprayed to the host plant by a special plant sprayer. The plant is inoculated with fungus after 24 hours. According to the infecting characteristic of fungus, the plant is stored in a humidity chamber and then transferred into greenhouse after infection is finished. And the other plants are placed in greenhouse directly.

[5] = system: rice blast; assay: microbe, parasite or virus in culture; type: cell-based; settings: Pyricularia oryzae, 24 h, read-out: inhibition rate against rice blast
[6] = system: wheat powdery mildew; assay: Protective activity in vivo (whole plant spray) against wheat powdery mildew; settings: 100 mg/L, comparative test (Table 130); for inhibition at 100 µg/mL: Triticum aestivum
Protocol: as §3

[7] = system: carmine spider mite; assay: Bioactivity test against carmine spider mite (airbrush spray); type: in vivo; settings: contrastive test (Table 135)
Protocol: as §1, §2
The method: Broadbean shoots with two true leaves in pot were taken, the healthy adults of carmine spider mite were inoculated to the leaves. The adults were counted and then sprayed with airbrush at the pressure of 0.7 kg/cm^2 and at dose of 0.5 ml. 3 replicates were set for each treatment. And then they were maintained in standard observation room. Scores were conducted and mortalities were calculated after 72 hrs.

[8] = system: corn rust; assay: Protective activity in vivo (whole plant spray) against corn rust; settings: comparative test (Table 131)
Protocol: as §3

[9] = system: cucumber anthracnose; assay: Protective activity in vivo (whole plant spray) against cucumber anthracnose; settings: for inhibition at 100 µg/mL: Cucumis sativus, read-out: protective activity (%) against cucumber anthracnose; for control against cucumber anthracnose: 6.25 ppm, protective, in vivo
Protocol: as §3

[10] = 25 mg/L, comparative test (Table 129)
[11] = 100 mg/L, comparative test (Table 132)

## CCc1ncnc(NCc2cnn(-c3ccccc3)c2C)c1Cl [CK1]
[1]
  Insecticidal activity against diamond back moth (%): 43%
[2]
  Insecticidal activity against peach aphid (%): 0%
[3]
  inhibition at 25 ppm: 0%
[4]; [10]
  inhibition at 25 µg/mL: 20%
[5]
  inhibition at 25 ppm: 0%

## CCc1ncnc(NCc2cnn(-c3ccccc3)c2C(F)(F)F)c1Cl [CK2]
[6]
  inhibition at 100 µg/mL: 50%
[1]
  Insecticidal activity against diamond back moth (%): 20%
[3]
  inhibition at 25 ppm: 0%
[4]; [10]
  inhibition at 25 µg/mL: 20%
[5]
  inhibition at 25 ppm: 0%

## Cc1nc(C)c(C)c(N(C)Cc2cnn(-c3ccccc3)c2)n1 [CK3]
[6]
  inhibition at 100 µg/mL: 0%
[1]
  Insecticidal activity against diamond back moth (%): 0%
[2]
  Insecticidal activity against peach aphid (%): 30%
[3]
  inhibition at 25 ppm: 0%
[7]; 600 mg/L
  Insecticidal activity against carmine spider mite (%): 56%
[4]; [10]
  inhibition at 25 µg/mL: 0%
[5]
  inhibition at 25 ppm: 0%
[8]; 25 mg/L
  control effect against corn rust (%): 0%
[8]; 100 mg/L
  control effect against corn rust (%): 20%
[9]; [11]
  inhibition at 100 µg/mL: 0%

## Cc1cc(N(C)Cc2cnn(-c3ccccc3)c2)nc(C(C)C)n1 [CK4]
[6]
  inhibition at 100 µg/mL: 0%
[1]
  Insecticidal activity against diamond back moth (%): 0%
[2]
  Insecticidal activity against peach aphid (%): 0%
[3]
  inhibition at 25 ppm: 0%
[7]; 600 mg/L
  Insecticidal activity against carmine spider mite (%): 59%
[4]; [10]
  inhibition at 25 µg/mL: 0%
[5]
  inhibition at 25 ppm: 0%
[8]; 25 mg/L
  control effect against corn rust (%): 0%
[8]; 100 mg/L
  control effect against corn rust (%): 0%
[9]; [11]
  inhibition at 100 µg/mL: 0%

## Cc1ncnc(NCCOc2ccn(-c3ccc(Cl)cc3)n2)c1Cl [Compound 31-19]
[4]
  inhibition at 25 µg/mL: 100%
[9]
  inhibition at 100 µg/mL: 90%

## Cc1ncnc(NCCOc2ccn(-c3c(Cl)cccc3Cl)n2)c1Cl [Compound 31-23]
[4]; [10]
  protective activity (%) against cucumber downy mildew: 100%

## Cc1ncnc(NCCOc2ccn(-c3c(Cl)cc(Cl)cc3Cl)n2)c1Cl [Compound 31-30]
[6]
  protective activity (%) against wheat powdery mildew: 98%
[4]; [10]
  protective activity (%) against cucumber downy mildew: 100%

## CCc1ncnc(NCCOc2ccn(-c3c(Cl)cc(Cl)cc3Cl)n2)c1Cl [Compound 32-30]
[6]
  protective activity (%) against wheat powdery mildew: 100%
[4]; [10]
  protective activity (%) against cucumber downy mildew: 100%

## CC(COc1ccn(-c2ccc(Cl)cc2)n1)Nc1ncnc(Cl)c1Cl (stereo not drawn) [Compound 35-19]
[6]
  protective activity (%) against wheat powdery mildew: 70%
[4]; [10]
  protective activity (%) against cucumber downy mildew: 100%

## CCc1ncnc(NC(C)COc2ccn(-c3ccc(Cl)cc3)n2)c1Cl (stereo not drawn) [Compound 37-19]
[6]
  protective activity (%) against wheat powdery mildew: 95%
[1]
  Insecticidal activity against diamond back moth (%): 100%
[1]; 600 ppm, mortality after 72 h
  control against diamond back moth: 100%
[2]
  Insecticidal activity against peach aphid (%): 84%
[7]; 100 mg/L
  Insecticidal activity against carmine spider mite (%): 100%
[7]; 600 mg/L
  Insecticidal activity against carmine spider mite (%): 100%
[8]; 25 mg/L
  control effect against corn rust (%): 90%
[8]; 100 mg/L
  control effect against corn rust (%): 100%

## c1ccc(-n2ccc(OCCNc3ncnc4ccccc34)n2)cc1 [Compound 40-1]
[4]; [10]
  protective activity (%) against cucumber downy mildew: 70%

## Fc1ccc(-n2ccc(OCCNc3ncnc4ccccc34)n2)cc1 [Compound 40-4]
[4]; [10]
  protective activity (%) against cucumber downy mildew: 100%

## Clc1cccc(-n2ccc(OCCNc3ncnc4ccccc34)n2)c1 [Compound 40-18]
[4]; [10]
  protective activity (%) against cucumber downy mildew: 100%

## Clc1ccc(-n2ccc(OCCNc3ncnc4ccccc34)n2)cc1 [Compound 40-19]
[4]; [10]
  protective activity (%) against cucumber downy mildew: 96%
[9]; [11]
  protective activity (%) against cucumber anthracnose: 100%

## Clc1ccc(-n2ccc(OCCNc3ncnc4ccccc34)n2)c(Cl)c1 [Compound 40-21]
[4]; [10]
  protective activity (%) against cucumber downy mildew: 100%

## Clc1cc(Cl)c(-n2ccc(OCCNc3ncnc4ccccc34)n2)c(Cl)c1 [Compound 40-30]
[4]; [10]
  protective activity (%) against cucumber downy mildew: 100%

## Cc1ccc(-n2ccc(OCCNc3ncnc4ccccc34)n2)cc1 [Compound 40-57]
[9]; [11]
  protective activity (%) against cucumber anthracnose: 98%
[9]
  control against cucumber anthracnose: 90%

## Clc1csc2ncnc(NCCOc3ccn(-c4ccccc4)n3)c12 [Compound 42-1]
[4]; [10]
  protective activity (%) against cucumber downy mildew: 100%
[9]; [11]
  protective activity (%) against cucumber anthracnose: 95%
[9]
  control against cucumber anthracnose: 90%

## Clc1ccccc1-n1ccc(OCCNc2ncnc3scc(Cl)c23)n1 [Compound 42-17]
[4]; [10]
  protective activity (%) against cucumber downy mildew: 100%

## Clc1cccc(-n2ccc(OCCNc3ncnc4scc(Cl)c34)n2)c1 [Compound 42-18]
[4]; [10]
  protective activity (%) against cucumber downy mildew: 100%

## Clc1ccc(-n2ccc(OCCNc3ncnc4scc(Cl)c34)n2)c(Cl)c1 [Compound 42-21]
[4]; [10]
  protective activity (%) against cucumber downy mildew: 100%

## FC(F)(F)c1ccc(-n2ccc(OCCNc3ncnc4scc(Cl)c34)n2)cc1 [Compound 42-69]
[6]
  protective activity (%) against wheat powdery mildew: 100%
[4]; [10]
  protective activity (%) against cucumber downy mildew: 80%
[8]; 25 mg/L
  control effect against corn rust (%): 85%
[8]; 100 mg/L
  control effect against corn rust (%): 90%
[9]; [11]
  protective activity (%) against cucumber anthracnose: 95%

## CC(COc1ccn(-c2ccc(Cl)cc2)n1)Nc1ncnc2scc(Cl)c12 (stereo not drawn) [Compound 44-19]
[6]
  inhibition at 100 µg/mL: 100%
[3]
  inhibition at 25 ppm: > 80%
[7]; 100 mg/L
  Insecticidal activity against carmine spider mite (%): 100%
[7]; 600 mg/L
  Insecticidal activity against carmine spider mite (%): 100%
[4]; [10]
  inhibition at 25 µg/mL: 100%
[5]
  inhibition at 2.8 ppm: > 80%
  inhibition at 8.3 ppm: > 80%
  inhibition at 25 ppm: > 80%

## Cc1c(Cl)ncnc1NCCCOc1ccn(-c2ccc(C(F)(F)F)cc2)n1 [Compound 122-69]
[6]
  protective activity (%) against wheat powdery mildew: 100%
[9]; [11]
  protective activity (%) against cucumber anthracnose: 85%

## COc1c(Cl)ncnc1NCCCOc1ccn(-c2ccc(C(F)(F)F)cc2)n1 [Compound 123-69]
[6]
  protective activity (%) against wheat powdery mildew: 100%
[9]; [11]
  protective activity (%) against cucumber anthracnose: 90%

## CCc1ncnc(NCCCOc2ccn(-c3ccc(C(F)(F)F)cc3)n2)c1Cl [Compound 125-69]
[6]
  protective activity (%) against wheat powdery mildew: 100%

## FC(F)c1ncnc(NCCCOc2ccn(-c3ccc(C(F)(F)F)cc3)n2)c1Cl [Compound 126-69]
[6]
  protective activity (%) against wheat powdery mildew: 100%
[4]; [10]
  protective activity (%) against cucumber downy mildew: 70%
[9]; [11]
  protective activity (%) against cucumber anthracnose: 95%

## FC(F)(F)c1ccc(-n2ccc(OCCCNc3ncnc4ccccc34)n2)cc1 [Compound 127-69]
[6]
  protective activity (%) against wheat powdery mildew: 100%
[4]; [10]
  protective activity (%) against cucumber downy mildew: 70%
[9]; [11]
  protective activity (%) against cucumber anthracnose: 92%

## FC(F)(F)c1ccc(-n2ccc(OCCCNc3ncnc4scc(Cl)c34)n2)cc1 [Compound 128-69]
[6]
  protective activity (%) against wheat powdery mildew: 100%
